Laboratory results: paper PMC7608467 (Acta Pharmacologica Sinica, 2020)

Key:
[1] = biological target: human relaxin/insulin-like family peptide receptor 4 (RXFP4) on CHO-K1 cells (human) (UniProt Q8TDU9)
mouse RXFP4 (mRXFP4) = biological target: T1, mouse RXFP4 (mRXFP4) (Mus musculus, UniProt Q7TQP4); assay: inhibition of forskolin-stimulated cAMP accumulation, TR-FRET; format: cell-based; settings: agonist; 500 nM forskolin, 500 uM IBMX, 40 min, RT
T1 sequence (Q7TQP4 1-414): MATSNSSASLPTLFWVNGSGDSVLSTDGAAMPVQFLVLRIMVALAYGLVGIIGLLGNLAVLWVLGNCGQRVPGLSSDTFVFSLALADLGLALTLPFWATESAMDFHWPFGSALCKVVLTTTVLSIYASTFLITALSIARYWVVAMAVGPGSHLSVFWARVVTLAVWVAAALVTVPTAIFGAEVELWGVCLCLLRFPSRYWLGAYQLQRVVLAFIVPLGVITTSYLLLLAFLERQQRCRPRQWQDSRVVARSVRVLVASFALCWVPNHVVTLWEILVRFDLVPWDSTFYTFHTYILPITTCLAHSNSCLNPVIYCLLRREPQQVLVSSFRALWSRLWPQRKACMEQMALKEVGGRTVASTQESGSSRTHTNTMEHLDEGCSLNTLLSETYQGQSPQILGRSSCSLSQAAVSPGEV

human RXFP4 (hRXFP4) [2] = biological target: T2, human RXFP4 (hRXFP4) (Homo sapiens, UniProt Q8TDU9); assay: as above; format: cell-based; settings: agonist; 500 nM forskolin, 500 uM IBMX, 40 min, RT
human RXFP4 (hRXFP4) [3] = biological target: T2, human RXFP4 (hRXFP4); assay: Eu-mINSL5 competition binding, time-resolved fluorescence, CHO-RXFP4 cells; format: cell-based; settings: n = 3; one-site fit; competitive with Eu-labelled INSL5

Sequence of human relaxin/insulin-like family peptide receptor 4 (RXFP4) on CHO-K1 cells (human) (Q8TDU9 whole entry): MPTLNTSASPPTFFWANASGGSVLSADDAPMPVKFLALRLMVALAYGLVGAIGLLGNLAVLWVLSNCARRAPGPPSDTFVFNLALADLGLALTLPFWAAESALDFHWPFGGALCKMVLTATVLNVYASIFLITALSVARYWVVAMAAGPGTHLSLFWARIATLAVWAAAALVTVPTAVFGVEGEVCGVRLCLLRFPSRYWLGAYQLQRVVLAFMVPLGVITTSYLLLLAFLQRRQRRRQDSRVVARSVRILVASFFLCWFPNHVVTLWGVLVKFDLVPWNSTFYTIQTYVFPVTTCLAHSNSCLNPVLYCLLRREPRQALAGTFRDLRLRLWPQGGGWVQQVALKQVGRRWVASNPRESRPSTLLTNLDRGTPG
T2 sequence (Q8TDU9 whole entry): as above
Sequence of Human INSL5 (insulin-like peptide 5) (ligand) (Q9Y5Q6 23-135): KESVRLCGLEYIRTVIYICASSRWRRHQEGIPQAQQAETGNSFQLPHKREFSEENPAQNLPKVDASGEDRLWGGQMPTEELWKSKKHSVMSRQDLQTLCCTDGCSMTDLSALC

pEC50, inhibition of forskolin-stimulated cAMP production in hRXFP4-CHO cells [1]	pEC50 (mouse RXFP4 (mRXFP4))	pEC50 (human RXFP4 (hRXFP4) [2])	pKi (human RXFP4 (hRXFP4) [3])	Compound
8.12				Human INSL5 (insulin-like peptide 5) (ligand)
	4.60 ± 0.07 -log M	4.76 ± 0.04 -log M	4.48 ± 0.09 -log M	O=C1CCCC2=C1[C@H](c1ccc(O)cc1)n1nc(-c3ccccc3Cl)nc1N2 [JK1]
7.52				R3/I5 (ligand)
